Here are results for one compound from patent US20100160397A1, “OXAZOLE DERIVATIVES AND THEIR USE IN THE TREATMENT OF DIABETES AND OBESITY” (priority 2006, published 2010).

pIC50: −log10 of the molar value.

In this assay the target is T1, human DGAT1 (Homo sapiens, UniProt O75907).
T1 construct: made in house; host or cells: sf9 insect cells (baculovirus), membrane fraction
T1 sequence (O75907 1-488): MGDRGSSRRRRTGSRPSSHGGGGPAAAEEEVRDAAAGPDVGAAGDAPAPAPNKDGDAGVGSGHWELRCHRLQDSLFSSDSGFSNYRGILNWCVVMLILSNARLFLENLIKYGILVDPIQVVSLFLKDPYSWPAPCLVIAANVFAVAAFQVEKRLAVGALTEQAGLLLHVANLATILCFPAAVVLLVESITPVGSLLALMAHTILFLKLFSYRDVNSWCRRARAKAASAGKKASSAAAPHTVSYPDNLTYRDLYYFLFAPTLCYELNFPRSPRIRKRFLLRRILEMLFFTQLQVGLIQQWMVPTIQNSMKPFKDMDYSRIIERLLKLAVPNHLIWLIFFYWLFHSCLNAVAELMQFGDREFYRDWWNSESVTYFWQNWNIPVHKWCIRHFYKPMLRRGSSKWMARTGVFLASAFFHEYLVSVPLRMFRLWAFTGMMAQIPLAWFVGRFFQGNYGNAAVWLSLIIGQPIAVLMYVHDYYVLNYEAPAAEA
The experiment in a line: Human Enzyme Assay (DGAT1 inhibition, 14C oleoyl CoA incorporation into triolein). Format: biochemical. The note with it: human DGAT1 expressed in insect cell (sf9) membranes; 30 μM 14C oleoyl coenzyme A, 30 minutes at room temperature. The method, then:
As indicated above, all of the compounds, and their corresponding pharmaceutically-acceptable salts, are useful in inhibiting DGAT1.
The in vitro assay to identify DGAT1 inhibitors uses human DGAT1 expressed in insect cell membranes as the enzyme source (Proc. Natl. Acad. Sci. 1998, 95, 13018-13023). Briefly, sf9 cells were infected with recombinant baculovirus containing human DGAT1 coding sequences and harvested after 48 h. Cells were lysed by sonication and membranes isolated by centrifuging at 28000 rpm for 1 h at 4° C. on a 41% sucrose gradient. The membrane fraction at the interphase was collected, washed, and stored in liquid nitrogen.
DGAT1 activity was assayed by a modification of the method described by Coleman (Methods in Enzymology 1992, 209, 98-102). Compound at 1-10 μM was incubated with 0.4 μg membrane protein, 5 mM MgCl2, and 10 0 μM 1,2 dioleoyl-sn-glycerol in a total assay volume of 200 μl in plastic tubes. The reaction was started by adding ^14C oleoyl coenzyme A (30 μM final concentration) and incubated at room temperature for 30 minutes. The reaction was stopped by adding 1.5 mL 2-propanol:heptane:water (80:20:2). Radioactive triolein product was separated into the organic phase by adding 1 mL heptane and 0.5 mL 0.1 M carbonate buffer pH 9.5. DGAT1 activity was quantified by counting aliquots of the upper heptane layer by liquid scintillography.

By pIC50 is commonly meant the negative decadic logarithm of the IC50, by convention in mol/L. The low end stands for a high IC50, the high end for a low IC50. In turn, `COC(=O)C[C@H]1CC[C@H](c2ccc(NC(=O)c3coc(Nc4ccc(F)c(F)c4)n3)cc2)CC1` [Example 2, Methyl trans-2-{4-[4-({2-[(3,4-difluorophenyl)amino]-1,3-oxazole-4-carbonyl}amino)phenyl]cyclohexyl}acetate] showed a pIC50 of 4.49.
